These are literature values, as cited in patent publication US10525099B2, “Orally disintegrating solid pharmaceutical dosage unit containing a partus control substance” (Oxytone Bioscience B.V., priority 2014, dated 2020).

For series [1] the following is noted: in vivo.
For series [2] the following is noted: lyophilized.

Molecules are shown by their SMILES. Bridge positions count the residues as written; N and C are the ends. Square brackets hold non-standard residues; d marks the D form. Peptide text beside a SMILES is read from it. Orn = NCCC[C@H](N)C(=O)O; Mpa = O=C(O)CCS

Consider `CC[C@H](C)[C@@H]1NC(=O)[C@H](Cc2ccc(O)cc2)NC(=O)[C@@H](N)CSSC[C@@H](C(=O)N2CCC[C@H]2C(=O)N[C@@H](CC(C)C)C(=O)NCC(N)=O)NC(=O)[C@H](CC(N)=O)NC(=O)[C@H](CCC(N)=O)NC1=O` [Oxytocin, cysteine-tyrosine-isoleucine-glutamine-asparagine-cysteine-proline-leucine-glycine-amide], for which the “half-life in the blood” value in series [1] is “about three”.

Turning to `CCOc1ccc(C[C@H]2NC(=O)CCSSC[C@@H](C(=O)N3CCC[C@H]3C(=O)N[C@@H](CCCN)C(=O)NCC(N)=O)NC(=O)[C@H](CC(N)=O)NC(=O)[C@H]([C@@H](C)O)NC(=O)[C@H]([C@@H](C)CC)NC2=O)cc1` [atosiban] ([Mpa][dY](Et)ITNCP[Orn]G-NH2; disulfide 1-6), in series [2], the “time stable at room temperature” value is 3 weeks.
